Measured values as given in patent publication US20040175447A1, “Feeds and fertilizers containing pentacyclic triterpenes” (The Nisshin OilliO, Ltd., priority 2001, published 2004).

Test system: B-16 melanoma cells
Experiment: Evaluation of melanin production-inhibitory effect (cell-whitening degree of cultured B-16 melanoma cells); for Melanin production-inhibitory effect (cell-whitening degree): key: ++: The whitening degree is higher than that observed for the positive control; +: The whitening degree is almost identical to that observed for the positive control; ±: The whitening degree is not higher than that observed for the positive control, but higher than that observed for the control; −: The whitening degree is almost identical to that observed for the control
Assay type: cell-based
Conditions: for Melanin production-inhibitory effect (cell-whitening degree): positive control 450 ppm vitamin C-magnesium phosphate; for melanogenesis-inhibitory function relative to that observed when 450 ppm of vitamin C-magnesium phosphate (standard) is added: from Table 1
Procedure: In the present invention, the melanogenesis-inhibitory effect is evaluated and compared on the basis of the results of tests for examining the melanogenesis-inhibitory function in which B-16 melanoma cells are cultivated, as a primary evaluation. Moreover, a feed is, for instance, practically prepared and its effectiveness in the melanogenesis-inhibition is evaluated as a secondary evaluation. It has been confirmed that the pentacyclic triterpenes whose strong melanogenesis-inhibitory function is confirmed by the cell culture test as the primary evaluation also show an excellent effect in the secondary evaluation test. In addition, it has also been confirmed that there is a correlation between the results obtained in these two evaluation methods.
If the culture system includes a melanogenesis-inhibitory substance during the proliferation thereof, the blackening of the cells is suppressed while the whitening thereof is relatively promoted. Accordingly, the melanogenesis-inhibitory function of the substance can be evaluated by comparing the degree of whitening observed for the substance with the degree of blackening observed for a control. The evaluated results of the melanogenesis-inhibitory effect obtained in this cell culture system clearly indicate that the pentacyclic triterpenes and/or physiologically acceptable salts thereof or derivatives thereof have quite strong melanogenesis-inhibitory effects. For instance, when comparing the effects thereof with that achieved by vitamin C-magnesium phosphate, the melanogenesis-inhibitory effect is about 100 to 200 times, for maslinic acid, about 100 to 200 times, for maslinic acid salts, about 10 to 100 times, for erythrodiol, about 30 to 120 times, for uvaol, about 30 to 120 times, for betulinic acid, about 10 to 100 times, for betulin, about 100 to 200 times, for ethyl maslinate, about 50 to 150 times, for acetylated maslinic acid, about 30 to 120 times, for triethylsilylated maslinic acid, about 50 to 150 times, for stearoyl derivative of ethyl maslinate, about 10 to 100 times, for acetylated erythrodiol, about 10 to 100 times, for acetylated uvaol, about 10 to 100 times, for ethyl betulinate, and about 5 to 50 times, for acetylated betulin, that observed for the vitamin C-magnesium phosphate.
A culture medium was dispensed to wells of a 6-well plate (2 mL/well each), followed by inoculation of a desired amount of B-16 melanoma cells on each well, allowing the wells to stand at 37° C. and 5% CO2 to thus cultivate the cells. On the day subsequent thereto, a candidate sample (pentacyclic triterpenes) solution prepared was added to and mixed with the culture medium containing the cells and the cultivation was continued. The culture medium was replaced with fresh one on the 5th day from the initiation of the cultivation and the prepared sample solution was again added to the wells. On the next day, the culture medium was removed to recover the cells, followed by the washing of these cells with PBS (phosphate buffered physiological saline) and the subsequent evaluation of the cell-whitening degree. In this respect, the melanogenesis-inhibitory function was evaluated by comparing the cell-whitening degree thus obtained with that observed when using 450 ppm of vitamin C-magnesium phosphate as a known whitening agent (a positive control) and that obtained when any candidate sample was not used (control), according to the following evaluation criteria.
The evaluation criteria for the cell-whitening degree are as follows:
Regarding the results listed in Table 1, the whitening degree observed when adding 450 ppm of vitamin C-magnesium phosphate is selected as a standard.

SMILES | Melanin production-inhibitory effect (cell-whitening degree) (2 ppm) | Melanin production-inhibitory effect (cell-whitening degree) (6 ppm) | Melanin production-inhibitory effect (cell-whitening degree) (10 ppm) | Melanin production-inhibitory effect (cell-whitening degree) (25 ppm) | Melanin production-inhibitory effect (cell-whitening degree) (50 ppm) | melanogenesis-inhibitory function relative to that observed when 450 ppm of vitamin C-magnesium phosphate (standard) is added | Melanin production-inhibitory effect (cell-whitening degree) (4 ppm) | Melanin production-inhibitory effect (cell-whitening degree) (8 ppm) | Melanin production-inhibitory effect (cell-whitening degree) (15 ppm) | Melanin production-inhibitory effect (cell-whitening degree) (100 ppm) | Melanin production-inhibitory effect (cell-whitening degree) (200 ppm) | Melanin production-inhibitory effect (cell-whitening degree) (300 ppm) | Melanin production-inhibitory effect (cell-whitening degree) (450 ppm) | concentration required for showing the effect identical to that observed for 450 ppm of vitamin C-magnesium phosphate
C=C(C)[C@@H]1CC[C@]2(CO)CC[C@]3(C)[C@H](CC[C@@H]4[C@@]5(C)CC[C@H](O)C(C)(C)[C@@H]5CC[C@]43C)[C@@H]12 [Betulin] | − | ± | ± | + | + | about 20 times |  |  |  |  |  |  |  | 
C=C(C)[C@@H]1CC[C@]2(C(=O)O)CC[C@]3(C)[C@H](CC[C@@H]4[C@@]5(C)CC[C@H](O)C(C)(C)[C@@H]5CC[C@]43C)[C@@H]12 [Betulinic acid] | − | ± | + | + | + | about 40 times |  |  |  |  |  |  |  | 
CCOC(=O)[C@]12CCC(C)(C)C[C@H]1C1=CC[C@@H]3[C@@]4(C)C[C@@H](O)[C@H](O)C(C)(C)[C@@H]4CC[C@@]3(C)[C@]1(C)CC2 [Compound of Synthesis 1, Ethyl Ester of Maslinic Acid] | ± | ++ | ++ |  |  | about 110 times | + | ++ |  |  |  |  |  | 
CC(=O)O[C@@H]1C[C@]2(C)[C@H]3CC=C4[C@@H]5CC(C)(C)CC[C@]5(C(=O)O)CC[C@@]4(C)[C@]3(C)CC[C@H]2C(C)(C)[C@H]1OC(C)=O [Compound of Synthesis 2, 2,3-O-Di-Acetyl-Maslinic Acid] | ± | + | ++ |  |  | about 75 times | ± | ++ | ++ |  |  |  |  | 
CC[Si](CC)(CC)OC(=O)[C@]12CCC(C)(C)C[C@H]1C1=CC[C@@H]3[C@@]4(C)C[C@@H](O[Si](CC)(CC)CC)[C@H](O[Si](CC)(CC)CC)C(C)(C)[C@@H]4CC[C@@]3(C)[C@]1(C)CC2 [Compound of Synthesis 3, Triethylsilyl Ester of 2,3-O-Di-Triethylsilyl-Maslinic Acid] | − | ± | + | + | + | about 40 times |  |  |  |  |  |  |  | 
CCCCCCCCCCCCCCCCCC(=O)O[C@@H]1C[C@]2(C)[C@H]3CC=C4[C@@H]5CC(C)(C)CC[C@]5(C(=O)OCC)CC[C@@]4(C)[C@]3(C)CC[C@H]2C(C)(C)[C@H]1OC(=O)CCCCCCCCCCCCCCCCC [Compound of Synthesis 4, Ethyl 2,3-O-Di-Stearoyl-Maslinate] | ± | + | ++ |  |  | about 75 times | ± | ++ | ++ |  |  |  |  | 
CC(=O)OCC12CCC(C)(C)CC1C1=CCC3C4(C)CCC(OC(C)=O)C(C)(C)C4CCC3(C)C1(C)CC2 (stereo not drawn) [Compound of Synthesis 5, 3,28-O-Di-Acetyl-Erythrodiol] | − | ± | ± | + | + | about 20 times |  |  |  |  |  |  |  | 
CCOC(=O)[C@]12CC[C@@H](C)[C@H](C)[C@H]1C1=CC[C@@H]3[C@@]4(C)CC[C@H](O)C(C)(C)[C@@H]4CC[C@@]3(C)[C@]1(C)CC2 [Compound of Synthesis 6, Ethyl Ursolate] | ± | ++ | ++ |  |  | about 110 times | + | ++ |  |  |  |  |  | 
CC(=O)OC[C@]12CC[C@@H](C)[C@H](C)[C@H]1C1=CC[C@@H]3[C@@]4(C)CC[C@H](OC(C)=O)C(C)(C)[C@@H]4CC[C@@]3(C)[C@]1(C)CC2 [Compound of Synthesis 7, 3,28-O-Di-Acetyl-Uvaol] | − | − | ± | + | + | about 20 times |  |  |  |  |  |  |  | 
C=C(C)[C@@H]1CC[C@]2(C(=O)OCC)CC[C@]3(C)[C@H](CC[C@@H]4[C@@]5(C)CC[C@H](O)C(C)(C)[C@@H]5CC[C@]43C)[C@@H]12 [Compound of Synthesis 8, Ethyl Betulinate] | − | ± | ± | + | + | about 20 times |  |  |  |  |  |  |  | 
C=C(C)[C@@H]1CC[C@]2(COC(C)=O)CC[C@]3(C)[C@H](CC[C@@H]4[C@@]5(C)CC[C@H](OC(C)=O)C(C)(C)[C@@H]5CC[C@]43C)[C@@H]12 [Compound of Synthesis 9, 3,28-O-Di-Acetyl-Betulin] | − | − | ± | ± | + | about 10 times |  |  |  |  |  |  |  | 
CC1(C)CC[C@]2(CO)CC[C@]3(C)C(=CC[C@@H]4[C@@]5(C)CC[C@H](O)C(C)(C)[C@@H]5CC[C@]43C)[C@@H]2C1 [Erythrodiol] | ± | ± | ± | + | + | about 20 times |  |  |  |  |  |  |  | 
O=c1cc(CO)occ1O [Kojic Acid, reference compound] |  |  | − | − | ± |  |  |  | − | ± | + | ++ | ++ | 
CC1(C)CC[C@]2(C(=O)O)CC[C@]3(C)C(=CC[C@@H]4[C@@]5(C)C[C@@H](O)[C@H](O)C(C)(C)[C@@H]5CC[C@]43C)[C@@H]2C1 [Purified maslinic acid 1, maslinic acid] |  |  |  |  |  | about 110 times |  |  |  |  |  |  |  | 4 ppm
